Assay results: patent US20260274814A1, “THIENYL COMPOUNDS FOR THE TREATMENT OF A CENTRAL NERVOUS SYSTEM DISEASE OR DISORDER” (Coreterra Therapeutics, Inc., priority 2023, published 2026)
Structures can show the parent of a compound that is named as a salt. Where two headings read alike, the source gives them in different places.

System: mice
Experiment: Neuropharmacological Assay (SmartCube): automated behavioral signature of compound-treated mice compared with a database of reference drug classes
Assay type: in vivo
Conditions: for minimal effective dose: Mus musculus, ip, read-out: MED; for minimal effective dose / MED: minimal effective dose: dose having 45% or more total activity in SmartCube, i.p., that dose is shown
Summary of the method: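 Compounds in N-methyl-2-pyrrolidone/polyethylene glycol/propylene glycol were given i.p. 15 min before testing, at 3 doses; values shown are for 3.0 mg/kg. Video-captured behaviour was matched by algorithm against reference drug classes, giving a probability per class. MED: lowest dose reaching ≥45% total activity.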

[1] = SmartCube class probability, 3.0 mg/kg i.p., 15 min before test
[2] = SmartCube class probability, 3.0 mg/kg i.p., 15 min before test, hydrochloride, 3 mg/kg
[3] = SmartCube class probability, 3.0 mg/kg i.p., 15 min before test, 3 mg/kg
[4] = SmartCube probability class, 3.0 mg/kg dose, i.p. 15 min before the behavioral test
[5] = SmartCube probability class, 3.0 mg/kg dose, i.p. 15 min before the behavioral test, hydrochloride, 3 mg/kg

SMILES	AD [1]	AG [1]	AN [1]	AP [1]	CE [1]	HL [1]	MS [1]	SH [1]	UK [1]	minimal effective dose (if only one dose was tested)	AD [4]	AG [4]	AN [4]	AP [4]	AX [4]	CE [4]	HL [4]	MS [4]	PS [4]	SH [4]	further results
CNC1CCc2scc(C3CCC3)c2C1 (single isomer, unassigned) [Compound 267, 3-cyclobutyl-N-methyl-4,5,6,7-tetrahydrobenzothiophen-5-amine hydrochloride]	ND (^ <4%)	ND (^ <4%)	ND (^ <4%)	ND (^ <4%)	ND (^ <4%)	ND (^ <4%)	ND (^ <4%)	ND (^ <4%)													minimal effective dose (if only one dose tested): > 3 mg/kg; AX [1]: ND (^ <4%); PS [1]: ND (^ <4%); UK [2]: + (≥4%)
CNC1CCc2scc(C3CCC3)c2C1 (single isomer, unassigned) [Compound 268, 3-cyclobutyl-N-methyl-4,5,6,7-tetrahydrobenzothiophen-5-amine hydrochloride]	ND (^ <4%)	ND (^ <4%)	ND (^ <4%)	ND (^ <4%)	ND (^ <4%)	ND (^ <4%)	ND (^ <4%)	ND (^ <4%)													AX [1]: ND (^ <4%); PS [1]: ND (^ <4%); UK [2]: ND (^ <4%); MED (if only one dose tested): >3 mpk
CC1(N2CCCC2)CCc2ccsc2C1 (single isomer, unassigned) [Compound 275, 1-(6-methyl-4,5,6,7-tetrahydrobenzo[b]thiophen-6-yl)pyrrolidine]	ND (^ <4%)	ND (^ <4%)	ND (^ <4%)	ND (^ <4%)	ND (^ <4%)	ND (^ <4%)	ND (^ <4%)	ND (^ <4%)	ND (^ <4%)												minimal effective dose (if only one dose tested): 3 mg/kg; AX [3]: ND (^ <4%); PS [3]: ++++ (≥74%)
CC1(N2CCCC2)CCc2ccsc2C1 (single isomer, unassigned) [Compound 276, 1-(6-methyl-4,5,6,7-tetrahydrobenzo[b]thiophen-6-yl)pyrrolidine]	ND (^ <4%)	ND (^ <4%)	ND (^ <4%)	ND (^ <4%)	ND (^ <4%)	ND (^ <4%)	ND (^ <4%)	ND (^ <4%)	ND (^ <4%)												AX [3]: ++++ (≥74%); PS [3]: ND (^ <4%); MED (if only one dose tested): 3 mpk
NC1CCc2scc(C3CC3)c2C1 (single isomer, unassigned) [Compound 277, 3-cyclopropyl-4,5,6,7-tetrahydrobenzothiophen-5-amine hydrochloride]	ND (^ <4%)	ND (^ <4%)	ND (^ <4%)	ND (^ <4%)	ND (^ <4%)	ND (^ <4%)	ND (^ <4%)	ND (^ <4%)	+ (≥4%)												minimal effective dose (if only one dose tested): > 3 mg/kg; AX [1]: ND (^ <4%); PS [1]: ND (^ <4%)
NC1CCc2scc(C3CC3)c2C1 (single isomer, unassigned) [Compound 278, 3-cyclopropyl-4,5,6,7-tetrahydrobenzothiophen-5-amine hydrochloride]	ND (^ <4%)								+ (≥4%)												MED (if only one dose tested): >3 mpk
CCc1csc2c1CC(N)CC2 (single isomer, unassigned) [Compound 279, 3-ethyl-4,5,6,7-tetrahydrobenzothiophen-5-amine hydrochloride]										3 mg/kg	ND (^ <4%)	ND (^ <4%)	ND (^ <4%)	ND (^ <4%)	ND (^ <4%)	ND (^ <4%)	ND (^ <4%)	ND (^ <4%)	ND (^ <4%)	ND (^ <4%)	UK [5]: ++ (≥24%)
CCc1csc2c1CC(N)CC2 (single isomer, unassigned) [Compound 280, 3-ethyl-4,5,6,7-tetrahydrobenzothiophen-5-amine hydrochloride]											ND (^ <4%)	ND (^ <4%)	ND (^ <4%)	ND (^ <4%)	ND (^ <4%)	ND (^ <4%)	ND (^ <4%)	ND (^ <4%)	ND (^ <4%)	ND (^ <4%)	UK [5]: +++ (≥49%); MED (if only one dose was tested): 3 mpk
CC1(N)CCc2sccc2C1 (single isomer, unassigned) [Compound 281, 5-methyl-4,5,6,7-tetrahydrobenzo[b]thiophen-5-amine hydrochloride]										3 mg/kg	++++ (≥74%)	ND (^ <4%)	ND (^ <4%)			ND (^ <4%)	ND (^ <4%)	ND (^ <4%)	ND (^ <4%)	ND (^ <4%)	UK [4]: ND (^ <4%); AP [5]: + (≥4%); AX [5]: + (≥4%)
CC1(N)CCc2sccc2C1 (single isomer, unassigned) [Compound 282, 5-methyl-4,5,6,7-tetrahydrobenzo[b]thiophen-5-amine hydrochloride]											++++ (≥74%)	ND (^ <4%)	ND (^ <4%)			ND (^ <4%)	ND (^ <4%)	ND (^ <4%)	ND (^ <4%)	ND (^ <4%)	UK [4]: ND (^ <4%); AP [5]: ND (^ <4%); AX [5]: ND (^ <4%); MED (if only one dose was tested): 3 mpk
CC1(N2CCCC2)CCc2sccc2C1.Cl (single isomer, unassigned) [Compound 283, 1-(5-methyl-4,5,6,7-tetrahydrobenzo[b]thiophen-5-yl)pyrrolidine hydrochloride]										3 mg/kg	ND (^ <4%)	ND (^ <4%)	ND (^ <4%)	ND (^ <4%)	ND (^ <4%)	ND (^ <4%)	ND (^ <4%)	ND (^ <4%)	ND (^ <4%)	ND (^ <4%)	UK [5]: + (≥4%)
CC1(N2CCCC2)CCc2sccc2C1.Cl (single isomer, unassigned) [Compound 284, 1-(5-methyl-4,5,6,7-tetrahydrobenzo[b]thiophen-5-yl)pyrrolidine hydrochloride]											ND (^ <4%)	ND (^ <4%)	ND (^ <4%)	ND (^ <4%)	ND (^ <4%)	ND (^ <4%)	ND (^ <4%)	ND (^ <4%)	ND (^ <4%)	ND (^ <4%)	UK [5]: ++ (≥24%); MED (if only one dose was tested): 3 mpk
CNC1COc2scc(C(F)(F)F)c2C1 (single isomer, unassigned) [Compound 289, N-methyl-5-(trifluoromethyl)-3,4-dihydro-2H-thieno[2,3-b]pyran-3-amine hydrochloride]										> 3 mg/kg	ND (^ <4%)	ND (^ <4%)	ND (^ <4%)	ND (^ <4%)	ND (^ <4%)	ND (^ <4%)	ND (^ <4%)	ND (^ <4%)	ND (^ <4%)	ND (^ <4%)	UK [4]: + (≥4%)
